Measurements reported in PMC3992874 (Journal of nuclear medicine : official publication, Society …, 2013).

Key:
LP9 mesothelial cells = experiment: Viability of carboplatin-treated LP9 mesothelial cells; format: cell-based, human; details: increasing concentrations up to 1 μg/ml, 24 hours, data not shown
[1] = system: VCAM-1 expression, SKOV3ip1 (platinum resistant) tumors; format: in vivo, mouse; details: SKOV3ip1 mice, single IP 25 mg/kg; 111In-tVCAM-4 omentum biodistribution; n=3
[2] = patients; cited from earlier work
VCAM-1 = details: previous work; cited from earlier work

Compound	effect on cell viability (LP9 mesothelial cells)	VCAM-1 expression above baseline 2 days after treatment [1]	injected dose excreted within 24 hours [2]	affinity for VCAM-1 (VCAM-1)
N.N.O=C([O-])C1(C(=O)[O-])CCC1.[Pt+2] [carboplatin]	None of the concentrations tested altered	50%	up to 80%	–
(βAKTLLPTPGGS(PEG5000))KKKDOTAβA-NH2 [tVCAM-4]	–	–	–	high affinity
